These are literature values, as cited in patent US20260245667A1, “EFFICIENT DETECTION OF DECENTRALIZED BIOMARKERS OF GROUPS OF DNA SEQUENCES IN MICROBIOME DNA” (ALPHABIOME AI LTD, priority 2023, published 2026).

The structures appear in SMILES notation.

For data set [1], the system named is methane emissions.
For data set [2], the system named is ruminal methane production. Conditions: meta-analyses.

On to `C=CCS[S+]([O-])CC=C` (stereo not drawn) [Allicin], for which, in data set [1] (in vitro), the “mitigation of methane emissions in vitro” value is “up to 38%”. Further, in data set [1] (partial incubation periods), the “levels of propionate and butyrate” value is “elevate”.

Take `CC[C@@]1([C@@H]2O[C@@H]([C@H]3O[C@@](O)(CO)[C@H](C)C[C@@H]3C)C[C@@H]2C)CC[C@H]([C@]2(C)CC[C@]3(C[C@H](O)[C@@H](C)[C@@H]([C@@H](C)[C@@H](OC)[C@H](C)C(=O)O)O3)O2)O1` [Monensin]: the “methanogenesis inhibition, reduction on average in dairy” value in data set [2] is recorded as “up to 10%”.
